# What was measured:
# Tg(Dyrk1a) mice = assay: Y-maze working memory in Tg(Dyrk1a) mice; format: in vivo, mouse; details: L41-treated Tg(Dyrk1a) mice
# Dyrk1a mRNA = assay: Brain Dyrk1a mRNA expression by qPCR after treatment; format: in vivo, mouse; details: 19 days daily i.p., Tg(Dyrk1a), Ts65Dn and wt brains
# Source text: To validate the Tg(Dyrk1a) and Ts65Dn models in terms of DYRK1A expression and function, we first verified the expression levels of Dyrk1a mRNA (Fig. 4A) and DYRK1A protein (Fig. 4B) in brains derived from control or L41-treated animals (19 days, daily i.p.). Total mRNAs were extracted from brains and Dyrk1a, Gsk-3b and Rplp0 mRNAs were quantified by quantitative polymerase chain reaction (qPCR) with specific primers. […] We next measured DYRK1A catalytic activities from transgenic and wt brain protein extracts (Fig. 4C). […] As expected, DYRK1A activity was elevated by ∼1.5- to 1.8-fold in transgenic brains compared with wt brains (Fig. 4C).
# Fig. 4. Dyrk1a mRNA and DYRK1A protein expression, and catalytic activity in Tg(Dyrk1a) and corresponding wt mice brains, and in Ts65Dn and corresponding wt mice brains. (A) mRNA expression. Total RNA was extracted, purified and reverse transcribed into cDNA. mRNA expression of Dyrk1a, Gsk-3b and reference Rplp0 was quantified by qPCR from the amplification of cDNA with specific primers (one primer annealing to an exon-exon junction). Results are presented as mean±s.e. of four to six measurements and are shown relative to Rplp0 expression, normalized to wt Gsk-3b expression. (B) Protein expression. Total proteins were extracted, resolved by SDS-PAGE and analysed by WB using antibodies directed against DYRK1A, GSK-3α/β and actin (loading control). […]
# [1] = Pharmacokinetics and brain biodistribution of L41 after acute i.p. injection; format: in vivo; details: mouse, ip
# Method: To investigate the importance of DYRK1A in cognitive deficits shown by transgenic mouse models of DS, we used a series of low molecular weight pharmacological inhibitors, collectively known as leucettines ([Debdab et al., 2011]; [Tahtouh et al., 2012]; T. Tahtouh, unpublished).
# re S1. Pharmacokinetics and brain biodistribution of L41 following acute intra-
# zoom on the first 8 hours.
# Disease Models & Mechanisms • Supplementary information
# CK2 = molecular target: T1, CK2 (Homo sapiens, UniProt P68400); assay: Recombinant protein kinase assay, CK2; format: biochemical; details: 15 µM ATP
# T1 construct: Cochet
# [2] = test system: Tg(Dyrk1a) mice brain phosphoproteins; assay: Brain phosphoproteomic analysis, Tg(Dyrk1a) mice; format: in vivo, mouse; details: 20 mg/kg daily i.p. 19 days
# Source text: All tissue samples were processed for phosphoproteomics analysis based on the enrichment and separation of proteotypic phosphopeptides with HILIC (see Materials and Methods). In Tg(Dyrk1a) and Ts65Dn mice, the hippocampus, cortex and cerebellum yielded 1384, 1523 and 2004 peptides, respectively, corresponding to 886, 948 and 1229 proteins (Table 1; Tables S1-S13).
# Only biological processes common to the three brain regions and both models are presented (complete biological processes are listed in Tables S11-S13).
# DYRK1A substrates and their respective phosphorylation sites were identified in the phosphoproteome based on the DYRK1A phosphorylation consensus sequence R-P-x(1,3)-S/T-P ([Himpel et al., 2000]). […] Biological process enrichments of each cluster were assessed by using ToppCluster web server application. […]
# Protein Identification and Quantification. […]
# Precursor Mass Tolerance 10 ppm, Fragment Mass Tolerance 20 mmu, Dynamic Modifications were Oxidation of M (+15.995 Da), Deamidation of N, Q (+0.984 Da), Phosphorylation of S (+79.966 Da) and Static Modifications were iTRAQ8plex at any N-Terminus, K, Y (+304.205 Da) and Methylthio at C (+45.988 Da). […] The Reporter Ion Quantifier node included a custom iTRAQ 8plex (Thermo Scientific Instruments) Quantification Method, integration window tolerance of 10 ppm with Most Confident Centroid. […]
# T1 sequence (P68400 whole entry): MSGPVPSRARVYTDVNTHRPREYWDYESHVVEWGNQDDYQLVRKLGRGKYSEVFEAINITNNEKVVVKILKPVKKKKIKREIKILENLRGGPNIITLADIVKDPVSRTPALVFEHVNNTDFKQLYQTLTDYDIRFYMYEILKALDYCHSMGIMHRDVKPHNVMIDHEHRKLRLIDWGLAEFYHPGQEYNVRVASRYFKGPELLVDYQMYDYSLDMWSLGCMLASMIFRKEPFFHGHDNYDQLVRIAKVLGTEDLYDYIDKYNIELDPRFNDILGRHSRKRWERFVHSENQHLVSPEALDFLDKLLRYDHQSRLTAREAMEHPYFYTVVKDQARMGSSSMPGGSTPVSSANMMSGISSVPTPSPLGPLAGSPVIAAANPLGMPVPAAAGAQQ
compound,measurement,setting,value
O=C1NC(Nc2ccccc2)=N/C1=C\c1ccc2c(c1)OCO2 [L41],Effect on working memory (Y-maze),Tg(Dyrk1a) mice,no restoring effect
same,Effect on Dyrk1a mRNA levels,Dyrk1a mRNA,did not modify
same,half-life,"[1]; Tg(Dyrk1a) transgenic and wild-type (wt) mice, plasma",~45 min
same,Blood brain barrier crossing,[1]; in vivo,able to cross the blood brain barrier
same,Differences in pharmacokinetics or biodistribution between transgenic and wt mice,[1]; in vivo,No differences
same,L41 in brain extracts,[1]; in vivo,essentially undetectable
same,Time of maximum brain concentration,[1]; in vivo,20 min
same,Time to elimination from brain after the maximum brain concentration,[1]; in vivo,2 h
same,IC50,CK2,510 nM
same,SYN1 Ser551 phosphorylation following treatment,[2],dephosphorylated

# Source: article PMC6176987, “Correction of cognitive deficits in mouse models of Down syndrome by a pharmacological inhibitor of DYRK1A” (Disease Models & Mechanisms, 2018)
